According to paper PMC4448990 (Pharmacology Research & Perspectives, 2015):

Key:
[1] = biological target: Protease, caspase, CASP-1 (h) (Homo sapiens, UniProt P29466); experiment: in vitro selectivity profile; format: biochemical
[2] = test system: Glutamate, NMDA, phencyclidine site; experiment: in vitro selectivity profile; format: binding; settings: eslicarbazepine 400 μmol/L
[3] = biological target: Adenosine transporter (h) (Homo sapiens, UniProt Q99808); experiment: in vitro selectivity profile; format: binding
[4] = biological target: Cannabinoid, CB1 (h) (Homo sapiens, UniProt P21554); experiment: in vitro selectivity profile; format: binding
[5] = biological target: hCav2.1 calcium channels (Homo sapiens, UniProt O00555); experiment: whole-cell patch clamp, hCav2.1 in CHO cells; format: cell-based; settings: IC50, hCav2.1 calcium peak currents, 0.3–1000 μmol/L, holding potential −80 mV
[6] = biological target: Protease, caspase, CASP-8 (h) (Homo sapiens, UniProt Q14790); experiment: in vitro selectivity profile; format: biochemical
[7] = test system: Nitric oxide, NOS (neuronal-binding); experiment: in vitro selectivity profile; settings: eslicarbazepine 400 μmol/L
[8] = biological target: Serotonin, 5HT1A (h) (Homo sapiens, UniProt P08908); experiment: in vitro selectivity profile; format: binding
[9] = biological target: Kinase, protein, PKCb2 (h) (Homo sapiens, UniProt P05771); experiment: in vitro selectivity profile; format: biochemical
[10] = test system: Oxidase, MAO-A, central; experiment: in vitro selectivity profile; format: biochemical; settings: eslicarbazepine 400 μmol/L
[11] = test system: Glutamate, mGluR1; experiment: in vitro selectivity profile; format: binding; settings: eslicarbazepine 400 μmol/L
[12] = biological target: Muscarinic, M5 (h) (Homo sapiens, UniProt P08912); experiment: in vitro selectivity profile; format: binding
[13] = biological target: Serotonin, 5HT1D (h) (Homo sapiens, UniProt P28221); experiment: in vitro selectivity profile; format: binding
[14] = biological target: human α1β2γ2 GABAA receptors (Homo sapiens, UniProt P14867+P18507+P47870); experiment: submaximal GABA currents in Ltk cells; format: cell-based
[15] = test system: Inositol triphosphate, IP3; experiment: in vitro selectivity profile; format: binding; settings: eslicarbazepine 400 μmol/L
[16] = biological target: Neurotensin (h) (Homo sapiens, UniProt P30989); experiment: in vitro selectivity profile; format: binding
[17] = test system: Transferase, choline acetyl; experiment: in vitro selectivity profile; format: biochemical; settings: eslicarbazepine 400 μmol/L
[18] = test system: GABA, chloride, TBOB site; experiment: in vitro selectivity profile; format: binding; settings: eslicarbazepine 400 μmol/L
[19] = test system: persistent Na+ current (INaP); settings: 300 μmol/L, ref Döser et al. [2013a], [2014], cited from earlier work
[20] = test system: Calcium channel, type N; experiment: in vitro selectivity profile; format: binding; settings: eslicarbazepine 400 μmol/L
[21] = test system: Adenosine, A2; experiment: in vitro selectivity profile; format: binding; settings: eslicarbazepine 400 μmol/L
[22] = test system: Angiotensin II, AT2; experiment: in vitro selectivity profile; format: binding; settings: eslicarbazepine 400 μmol/L
[23] = test system: Glutamate, NMDA agonist site; experiment: in vitro selectivity profile; format: binding; settings: eslicarbazepine 400 μmol/L
[24] = test system: Glutamate, mGluR5; experiment: in vitro selectivity profile; format: binding; settings: eslicarbazepine 400 μmol/L
[25] = biological target: hKv7.2 potassium channels (Homo sapiens, UniProt O43526); experiment: whole-cell patch clamp, hKv7.2 in CHO cells; format: cell-based; settings: depolarizing pulse +20 mV from holding potential −80 mV
[26] = biological target: Esterase, acetylcholine (h) (Homo sapiens, UniProt P22303); experiment: in vitro selectivity profile; format: biochemical
[27] = test system: Glycine, strychnine-sensitive; experiment: in vitro selectivity profile; format: binding; settings: eslicarbazepine 400 μmol/L
[28] = test system: sodium channels endogenously expressed in N1E-115 mouse neuroblastoma cells; settings: 250 μmol/L; ref Hebeisen et al. [2014]; cited from earlier work
[29] = test system: Cholecystokinin, CCK2 (CCKB); experiment: in vitro selectivity profile; format: binding; settings: eslicarbazepine 400 μmol/L
[30] = biological target: Protease, caspase, CASP-2 (h) (Homo sapiens, UniProt P42575); experiment: in vitro selectivity profile; format: biochemical
[31] = test system: transient Na+ channels; settings: ref Döser et al. [2013c], [2015]; cited from earlier work
[32] = biological target: human GRIA1 receptor (Homo sapiens, UniProt P42261); experiment: AMPA-receptor-mediated currents in CHO cells; format: cell-based; settings: CHO cells, human GRIA1
[33] = test system: Oxygenase, COX-2; experiment: in vitro selectivity profile; format: biochemical; settings: eslicarbazepine 400 μmol/L
[34] = test system: Serotonin, 5HT2C; experiment: in vitro selectivity profile; format: binding; settings: eslicarbazepine 400 μmol/L
[35] = biological target: human GRIN1/GRIN2B NMDA receptor (Homo sapiens, UniProt Q05586+Q13224); experiment: submaximal NMDA-receptor-mediated currents in HEK cells; format: cell-based
[36] = biological target: Kinase, protein, PKA (h) (Homo sapiens, UniProt P17612); experiment: in vitro selectivity profile; format: biochemical
[37] = test system: Histamine, H3; experiment: in vitro selectivity profile; format: binding; settings: eslicarbazepine 400 μmol/L

human α1β2γ2 GABAA receptors, sequence (P14867 28-456): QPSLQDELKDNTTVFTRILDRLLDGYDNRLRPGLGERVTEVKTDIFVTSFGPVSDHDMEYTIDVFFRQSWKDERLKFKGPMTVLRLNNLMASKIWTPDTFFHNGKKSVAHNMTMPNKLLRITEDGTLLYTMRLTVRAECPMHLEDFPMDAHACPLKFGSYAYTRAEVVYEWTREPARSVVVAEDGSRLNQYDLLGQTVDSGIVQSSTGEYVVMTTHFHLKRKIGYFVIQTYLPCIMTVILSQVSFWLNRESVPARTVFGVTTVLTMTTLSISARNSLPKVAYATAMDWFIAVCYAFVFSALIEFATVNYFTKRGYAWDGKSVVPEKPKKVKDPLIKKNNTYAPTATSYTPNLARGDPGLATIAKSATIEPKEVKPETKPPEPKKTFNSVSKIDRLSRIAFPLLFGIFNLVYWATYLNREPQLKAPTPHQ
human α1β2γ2 GABAA receptors, sequence (P47870 25-512 limits assumed): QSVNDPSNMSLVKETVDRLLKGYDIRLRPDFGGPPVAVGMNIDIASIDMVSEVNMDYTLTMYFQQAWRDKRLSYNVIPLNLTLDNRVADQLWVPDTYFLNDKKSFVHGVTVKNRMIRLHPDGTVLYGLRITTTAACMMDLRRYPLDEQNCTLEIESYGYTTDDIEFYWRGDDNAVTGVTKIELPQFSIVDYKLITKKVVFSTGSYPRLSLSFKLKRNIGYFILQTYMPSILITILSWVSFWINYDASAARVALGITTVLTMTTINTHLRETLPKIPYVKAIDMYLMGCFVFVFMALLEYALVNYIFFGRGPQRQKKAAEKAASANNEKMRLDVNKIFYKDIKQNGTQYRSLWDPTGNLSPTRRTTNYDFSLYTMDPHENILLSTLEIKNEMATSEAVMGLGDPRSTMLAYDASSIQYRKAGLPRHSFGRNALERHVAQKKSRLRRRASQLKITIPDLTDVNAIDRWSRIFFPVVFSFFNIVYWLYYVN
human α1β2γ2 GABAA receptors, sequence (P18507 40-475): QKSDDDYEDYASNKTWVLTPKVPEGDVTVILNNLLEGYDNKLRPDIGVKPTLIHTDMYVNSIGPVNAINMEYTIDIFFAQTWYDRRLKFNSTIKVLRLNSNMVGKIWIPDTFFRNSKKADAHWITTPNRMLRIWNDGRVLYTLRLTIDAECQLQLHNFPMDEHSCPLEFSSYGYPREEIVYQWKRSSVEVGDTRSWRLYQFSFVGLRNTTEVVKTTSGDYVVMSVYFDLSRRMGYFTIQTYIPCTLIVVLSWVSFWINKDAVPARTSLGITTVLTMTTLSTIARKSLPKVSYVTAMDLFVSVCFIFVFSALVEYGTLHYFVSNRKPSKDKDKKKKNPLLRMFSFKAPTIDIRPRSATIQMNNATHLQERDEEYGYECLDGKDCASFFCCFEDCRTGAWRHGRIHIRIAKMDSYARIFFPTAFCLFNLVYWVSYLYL
Serotonin, 5HT1D (h), sequence (P28221 whole entry): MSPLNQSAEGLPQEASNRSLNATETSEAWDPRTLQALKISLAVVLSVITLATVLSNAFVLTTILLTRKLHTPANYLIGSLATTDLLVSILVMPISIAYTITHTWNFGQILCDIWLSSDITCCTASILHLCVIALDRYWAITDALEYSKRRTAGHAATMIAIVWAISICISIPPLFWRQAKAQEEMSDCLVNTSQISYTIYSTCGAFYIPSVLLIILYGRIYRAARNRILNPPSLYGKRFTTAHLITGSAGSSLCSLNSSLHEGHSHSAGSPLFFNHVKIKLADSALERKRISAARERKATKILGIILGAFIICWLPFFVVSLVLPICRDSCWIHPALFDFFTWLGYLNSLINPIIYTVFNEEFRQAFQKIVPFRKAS
Adenosine transporter (h), sequence (Q99808 whole entry): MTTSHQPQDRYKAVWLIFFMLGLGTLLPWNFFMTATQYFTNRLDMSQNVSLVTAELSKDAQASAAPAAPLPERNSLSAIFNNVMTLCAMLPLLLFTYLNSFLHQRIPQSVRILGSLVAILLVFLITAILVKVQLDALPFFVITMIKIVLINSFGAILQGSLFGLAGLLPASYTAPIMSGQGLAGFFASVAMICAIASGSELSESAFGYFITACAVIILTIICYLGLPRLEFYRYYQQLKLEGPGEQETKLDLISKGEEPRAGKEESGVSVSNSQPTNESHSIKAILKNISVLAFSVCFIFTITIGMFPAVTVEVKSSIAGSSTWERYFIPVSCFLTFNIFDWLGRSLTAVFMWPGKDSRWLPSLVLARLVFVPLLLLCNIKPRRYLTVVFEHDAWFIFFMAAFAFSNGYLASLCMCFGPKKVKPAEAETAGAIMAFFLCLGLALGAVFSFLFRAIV
Cannabinoid, CB1 (h), sequence (P21554 whole entry): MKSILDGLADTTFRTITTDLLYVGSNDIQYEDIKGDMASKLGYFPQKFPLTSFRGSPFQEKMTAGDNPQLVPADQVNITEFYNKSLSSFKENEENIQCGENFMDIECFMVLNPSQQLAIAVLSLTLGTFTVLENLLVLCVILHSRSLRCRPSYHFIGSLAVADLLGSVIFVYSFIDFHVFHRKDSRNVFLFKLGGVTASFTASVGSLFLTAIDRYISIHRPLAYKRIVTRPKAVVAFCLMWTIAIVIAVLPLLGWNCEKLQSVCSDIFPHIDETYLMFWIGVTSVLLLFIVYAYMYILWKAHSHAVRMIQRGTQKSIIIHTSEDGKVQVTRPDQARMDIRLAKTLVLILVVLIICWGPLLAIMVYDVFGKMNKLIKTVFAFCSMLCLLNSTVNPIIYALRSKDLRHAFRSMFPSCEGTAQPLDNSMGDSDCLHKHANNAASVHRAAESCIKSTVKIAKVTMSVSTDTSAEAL
Protease, caspase, CASP-1 (h), sequence (P29466 120-297 limits assumed): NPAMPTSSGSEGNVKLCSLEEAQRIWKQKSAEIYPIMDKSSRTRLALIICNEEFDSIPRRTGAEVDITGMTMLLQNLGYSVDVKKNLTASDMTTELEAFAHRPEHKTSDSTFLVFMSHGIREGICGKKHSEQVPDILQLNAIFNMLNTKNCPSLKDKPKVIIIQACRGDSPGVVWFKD
Protease, caspase, CASP-1 (h), sequence (P29466 317-404 limits assumed): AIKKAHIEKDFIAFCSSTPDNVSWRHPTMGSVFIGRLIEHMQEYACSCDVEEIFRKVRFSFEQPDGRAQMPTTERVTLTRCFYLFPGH
human GRIN1/GRIN2B NMDA receptor, sequence (Q13224 27-1484, other chains not shown): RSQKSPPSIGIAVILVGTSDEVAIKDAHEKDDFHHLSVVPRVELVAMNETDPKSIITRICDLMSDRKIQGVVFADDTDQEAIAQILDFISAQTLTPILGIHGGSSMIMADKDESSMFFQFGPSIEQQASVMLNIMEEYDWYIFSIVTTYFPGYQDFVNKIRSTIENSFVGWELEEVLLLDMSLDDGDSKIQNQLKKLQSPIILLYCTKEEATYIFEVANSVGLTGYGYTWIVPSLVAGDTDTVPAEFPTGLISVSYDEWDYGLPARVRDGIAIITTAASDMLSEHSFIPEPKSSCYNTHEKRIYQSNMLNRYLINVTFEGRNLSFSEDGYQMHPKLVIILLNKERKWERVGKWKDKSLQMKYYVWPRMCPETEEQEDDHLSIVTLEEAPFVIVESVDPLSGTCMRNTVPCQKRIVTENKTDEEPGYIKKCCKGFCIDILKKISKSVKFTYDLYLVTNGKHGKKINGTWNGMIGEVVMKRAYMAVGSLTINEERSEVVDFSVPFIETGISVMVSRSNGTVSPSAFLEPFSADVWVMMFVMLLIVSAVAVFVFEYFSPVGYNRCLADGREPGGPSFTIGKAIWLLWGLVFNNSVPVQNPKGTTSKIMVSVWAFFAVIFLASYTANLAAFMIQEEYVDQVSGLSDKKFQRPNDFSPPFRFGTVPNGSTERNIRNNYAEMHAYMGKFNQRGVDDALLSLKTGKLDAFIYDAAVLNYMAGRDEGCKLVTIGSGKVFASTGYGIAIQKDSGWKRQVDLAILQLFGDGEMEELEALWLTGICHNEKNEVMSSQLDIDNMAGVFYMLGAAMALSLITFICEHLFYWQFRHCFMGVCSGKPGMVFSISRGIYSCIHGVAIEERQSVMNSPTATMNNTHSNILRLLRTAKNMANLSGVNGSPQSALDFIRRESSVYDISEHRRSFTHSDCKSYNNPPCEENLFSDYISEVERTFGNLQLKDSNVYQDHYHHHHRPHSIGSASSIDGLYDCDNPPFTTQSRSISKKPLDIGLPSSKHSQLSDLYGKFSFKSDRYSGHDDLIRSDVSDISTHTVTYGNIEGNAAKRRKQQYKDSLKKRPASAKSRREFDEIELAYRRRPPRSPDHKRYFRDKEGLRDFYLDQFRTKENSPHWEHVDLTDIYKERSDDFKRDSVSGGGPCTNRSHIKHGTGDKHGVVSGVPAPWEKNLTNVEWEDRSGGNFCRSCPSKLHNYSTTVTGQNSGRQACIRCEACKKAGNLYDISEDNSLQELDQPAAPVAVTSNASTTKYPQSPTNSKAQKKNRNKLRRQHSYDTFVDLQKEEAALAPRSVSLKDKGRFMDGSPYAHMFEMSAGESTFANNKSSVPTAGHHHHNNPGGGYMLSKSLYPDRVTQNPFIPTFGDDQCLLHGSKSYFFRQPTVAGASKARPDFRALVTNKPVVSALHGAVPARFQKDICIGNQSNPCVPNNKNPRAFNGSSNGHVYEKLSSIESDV
Protease, caspase, CASP-8 (h), sequence (Q14790 217-374 limits assumed): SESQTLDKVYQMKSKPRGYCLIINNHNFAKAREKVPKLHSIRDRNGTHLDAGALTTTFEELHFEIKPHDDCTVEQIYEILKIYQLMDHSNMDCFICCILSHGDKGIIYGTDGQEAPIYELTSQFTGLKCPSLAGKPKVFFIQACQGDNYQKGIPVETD
Protease, caspase, CASP-8 (h), sequence (Q14790 385-479 limits assumed): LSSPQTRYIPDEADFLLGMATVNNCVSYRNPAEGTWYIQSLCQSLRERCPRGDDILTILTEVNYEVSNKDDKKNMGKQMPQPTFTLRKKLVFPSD
Protease, caspase, CASP-2 (h), sequence (P42575 170-325 limits assumed): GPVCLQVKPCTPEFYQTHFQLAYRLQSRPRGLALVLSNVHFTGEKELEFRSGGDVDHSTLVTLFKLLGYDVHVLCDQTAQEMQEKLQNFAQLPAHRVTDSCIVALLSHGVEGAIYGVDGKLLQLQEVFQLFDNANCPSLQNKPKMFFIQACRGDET
Protease, caspase, CASP-2 (h), sequence (P42575 348-452 limits assumed): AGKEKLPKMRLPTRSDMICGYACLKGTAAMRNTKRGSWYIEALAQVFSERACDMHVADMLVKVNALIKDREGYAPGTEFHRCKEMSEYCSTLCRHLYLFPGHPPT

## NC(=O)N1c2ccccc2C[C@H](O)c2ccccc21 [eslicarbazepine]
[1]
  inhibition at 400 µM: 0%
[2]
  % inhibition: 0.0%
[3]
  inhibition at 400 µM: 10.1%
[4]
  inhibition at 400 µM: 20.4%
[5]
  IC50: 7.84 mM
[6]
  inhibition at 400 µM: 0%
[7]
  % inhibition: 0.0%
[8]
  inhibition at 400 µM: 0.4%
[9]
  inhibition at 400 µM: 0%
[10]
  % inhibition: 15.98%
[11]
  % inhibition: 1.82%
[12]
  inhibition at 400 µM: 16%
[13]
  inhibition at 400 µM: 16.4%
[14]; 50 μmol/L
  GABA inward current stimulation, α1β2γ2, Mean ± SEM: 103.3 ± 2.0
[14]; 100 μmol/L
  GABA inward current stimulation, α1β2γ2, Mean ± SEM: 95.9 ± 1.0
[14]; 250 μmol/L
  GABA inward current stimulation, α1β2γ2, Mean ± SEM: 97.8 ± 1.1
[14]; 500 μmol/L
  GABA inward current stimulation, α1β2γ2, Mean ± SEM: 99.4 ± 0.8
[14]; 50–500 μmol/L
  effect on submaximal α1β2γ2 GABA currents: did not significantly change submaximal GABA currents
[15]
  % inhibition: 0.45%
[16]
  inhibition at 400 µM: 4.94%
[17]
  % inhibition: 0.0%
[18]
  % inhibition: 38.95%
[19]; Scn1b null mice
  INaP in Scn1b null mice: did not cause a paradoxical upregulation of INaP
[19]; wild-type mice
  maximal INaP conductance and firing rate: significantly reduce maximal INaP conductance and efficiently decrease the firing rate
[20]
  % inhibition: 23.34%
[21]
  % inhibition: 0.0%
[22]
  % inhibition: 11.32%
[23]
  % inhibition: 0.0%
[24]
  % inhibition: 14.42%
[25]
  IC50, KV7.2 outward currents: no inhibitory effect
[26]
  inhibition at 400 µM: 0%
[27]
  % inhibition: 25.95%
[28]
  recovery of fast inactivated channels: recovered similar to control conditions
[29]
  % inhibition: 32.83%
[30]
  inhibition at 400 µM: 0%
[31]
  neuronal firing in dissociated granule cells from human hippocampus: significantly inhibited neuronal firing
[32]
  IC50, AMPA currents: neither eslicarbazepine nor CBZ significantly changed AMPA currents
[33]
  % inhibition: 0.0%
[34]
  % inhibition: 3.67%
[35]
  IC50: 1.23 mM
[36]
  inhibition at 400 µM: 3.67%
[37]
  % inhibition: 0.0%
